# Biological target: human TYK2 (JH2domain-pseudokinase) (Homo sapiens (Human), UniProt P29597)
# Test: TYK2 JH2 Domain Binding Assay (KINOMEscan, DiscoveRx)
# Settings: 11-point dilution, duplicate
# Procedure, shortened: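 Kd from duplicate 11-point 3-fold dilutions starting at 30,000 nM, fitted by Hill equation with slope fixed at −1. Compounds (final 0.9% DMSO) displace DNA-tagged HEK293-expressed TYK2 JH2 fusion (<0.1 nM) from ligand-coated beads over 1 h at room temperature; eluted kinase read by qPCR.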
# Chain of human TYK2 (JH2domain-pseudokinase) (P29597 556-888): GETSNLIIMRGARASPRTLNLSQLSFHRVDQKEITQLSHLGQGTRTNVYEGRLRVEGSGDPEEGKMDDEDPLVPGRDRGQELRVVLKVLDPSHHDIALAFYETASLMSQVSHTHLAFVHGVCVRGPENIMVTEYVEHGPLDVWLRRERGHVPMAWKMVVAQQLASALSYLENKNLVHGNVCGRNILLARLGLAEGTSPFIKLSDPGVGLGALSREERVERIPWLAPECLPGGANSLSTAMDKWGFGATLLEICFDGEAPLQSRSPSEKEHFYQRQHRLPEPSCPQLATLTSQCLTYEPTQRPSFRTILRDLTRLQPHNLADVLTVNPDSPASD
row,SMILES,Kd [nM]
1,"COc1cc(-c2cncn2C)ccc1Nc1cc(Nc2cnc(C)c(C)n2)nc2[nH]c(C)nc12 [I-152, N5-(5,6-dimethylpyrazin-2-yl)-N7-(2-methoxy-4-(1-methyl-1H-imidazol-5-yl)phenyl)-2-methyl-3H-imidazo[4,5-b]pyridine-5,7-diamine]",1 to 10
2,"Cc1nc2c(Nc3ccccc3N(C)S(C)(=O)=O)cc(Nc3cnc(C)c(C)n3)nc2[nH]1 [I-123, N-(2-((5-((5,6-dimethylpyrazin-2-yl)amino)-2-methyl-3H-imidazo[4,5-b]pyridin-7-yl)amino)phenyl)-N-methylmethanesulfonamide]",0.1 to 0.5
3,"CS(=O)(=O)c1cc([C@H]2CCCCO2)ccc1Nc1cc(NC(=O)[C@H]2CC2(F)F)nc2[nH]c(C(F)F)nc12 [I-280, (R)—N-(2-(difluoromethyl)-7-((2-(methylsulfonyl)-4-((R)-tetrahydro-2H-pyran-2-yl)phenyl)amino)-3H-imidazo[4,5-b]pyridin-5-yl)-2,2-difluorocyclopropane-1-carboxamide]",0.5 to 1
4,"COCCNc1ccc(Nc2cc(Nc3ccccc3N(C)S(C)(=O)=O)c3nc(C(F)F)[nH]c3n2)nc1C#N [I-295, N-(2-((5-((6-cyano-5-((2-methoxyethyl)amino)pyridin-2-yl)amino)-2-(difluoromethyl)-3H-imidazo[4,5-b]pyridin-7-yl)amino)phenyl)-N-methylmethane sulfonamide]",0.1 to 0.5
5,"COc1c(Nc2cc(Nc3ccc(N4CCCC4=O)c(C#N)n3)nc3[nH]c(C(F)F)nc23)cccc1-c1nnn(C)n1 [I-37, 6-((2-(difluoromethyl)-7-((2-methoxy-3-(2-methyl-2H-tetrazol-5-yl)phenyl)amino)-3H-imidazo[4,5-b]pyridin-5-yl)amino)-3-(2-oxopyrrolidin-1-yl)picolinonitrile]",0.1 to 0.5
6,"COc1c(Nc2cc(NC(=O)C3CC3)nc3[nH]c(C(F)F)nc23)cccc1-c1nc(C)nn1C [I-41, N-(2-(difluoromethyl)-7-((3-(1,3-dimethyl-1H-1,2,4-triazol-5-yl)-2-methoxyphenyl)amino)-3H-imidazo[4,5-b]pyridin-5-yl)cyclopropanecarboxamide]",> 10
7,"CS(=O)(=O)c1cc([C@H]2CCCO2)ccc1Nc1cc(NC(=O)[C@@H]2CC2(F)F)nc2[nH]c(C(F)F)nc12 [I-306, (S)—N-(2-(difluoromethyl)-7-((2-(methylsulfonyl)-4-((R)-tetrahydrofuran-2-yl)phenyl)amino)-3H-imidazo[4,5-b]pyridin-5-yl)-2,2-difluorocyclopropane-1-carboxamide]",0.5 to 1
8,"Cc1nc2c(Nc3ccc(-c4ncc(C)s4)cc3S(C)(=O)=O)cc(Nc3cccc(C#N)n3)nc2[nH]1 [I-503, 6-((2-methyl-7-((2-(methylsulfonyl)-4-(5-methylthiazol-2-yl)phenyl)amino)-3H-imidazo[4,5-b]pyridin-5-yl)amino)picolinonitrile]",0.1 to 0.5
9,"Cc1nc2c(Nc3ccc([C@H]4COCCO4)cc3S(C)(=O)=O)cc(NC(=O)C3CC3)nc2[nH]1 [I-612, (S)—N-(7-((4-(1,4-dioxan-2-yl)-2-(methylsulfonyl)phenyl)amino)-2-methyl-3H-imidazo[4,5-b]pyridin-5-yl)cyclopropanecarboxamide]",0.1 to 0.5
10,"Cc1nc2c(Nc3ccc([C@@H]4CCC(F)(F)CO4)cc3S(C)(=O)=O)cc(NC(=O)C3CC3)nc2[nH]1 [I-616, (S)—N-(7-((4-(5,5-difluorotetrahydro-2H-pyran-2-yl)-2-(methylsulfonyl)phenyl)amino)-2-methyl-3H-imidazo[4,5-b]pyridin-5-yl)cyclopropanecarboxamide]",0.1 to 0.5
11,Cc1csc(-c2ccc(Nc3cc(Nc4cc5n(n4)CCOC5)nc4[nH]c(C(F)F)nc34)c(S(C)(=O)=O)c2)n1 [I-476],0.1 to 0.5
12,"Cc1nc2c(Nc3ccc([C@@H]4CCC(C)(C)CO4)cc3S(C)(=O)=O)cc(Nc3cnc(C)c(C)n3)nc2[nH]1 [I-610, (S)—N5-(5,6-dimethylpyrazin-2-yl)-N7-(4-(5,5-dimethyltetrahydro-2H-pyran-2-yl)-2-(methylsulfonyl)phenyl)-2-methyl-3H-imidazo[4,5-b]pyridine-5,7-diamine]",1 to 10
13,"Cc1cc(Nc2cc(Nc3ccccc3N(C)S(C)(=O)=O)c3nc(C)[nH]c3n2)nc(C)n1 [I-124, N-(2-((5-((2,6-dimethylpyrimidin-4-yl)amino)-2-methyl-3H-imidazo[4,5-b]-pyridin-7-yl)amino)phenyl)-N-methylmethanesulfonamide]",0.1 to 0.5
14,"COCc1ccc(Nc2cc(NC(=O)C3CC3)nc3[nH]c(C)nc23)c(N(C)S(C)(=O)=O)c1 [I-150, N-(7-((4-(methoxymethyl)-2-(N-methylmethylsulfonamido)phenyl)amino)-2-methyl-3H-imidazo[4,5-b]pyridin-5-yl)cyclopropanecarboxamide]",0.1 to 0.5
15,"Cc1nc2c(Nc3ccc(-c4ncc(C)s4)cc3S(C)(=O)=O)cc(Nc3cc4n(n3)CCOC4)nc2[nH]1 [I-496, N5-(6,7-dihydro-4H-pyrazolo[5,1-c][1,4]oxazin-2-yl)-2-methyl-N7-(2-(methylsulfonyl)-4-(5-methylthiazol-2-yl)phenyl)-3H-imidazo[4,5-b]pyridine-5,7-diamine]",0.1 to 0.5

# Second part, the compound after the results:
row,Kd [nM],SMILES
1,0.5 to 1,"COc1c(Nc2cc(Nc3ccc4c(n3)C(F)(F)CC4)nc3[nH]c(C)nc23)cccc1-c1ncnn1C [I-628, N5-(7,7-difluoro-6,7-dihydro-5H-cyclopenta[b]pyridin-2-yl)-N7-(2-methoxy-3-(1-methyl-1H-1,2,4-triazol-5-yl)phenyl)-2-methyl-3H-imidazo[4,5-b]pyridine-5,7-diamine]"
2,0.5 to 1,"Cc1nc2c(Nc3ccc([C@@H]4CCOC4)cc3S(C)(=O)=O)cc(NC(=O)C3CC3)nc2[nH]1 [I-291, (S)—N-(2-methyl-7-((2-(methylsulfonyl)-4-(tetrahydrofuran-3-yl)phenyl)amino)-3H-imidazo[4,5-b]pyridin-5-yl)cyclopropanecarboxamide]"
3,0.1 to 0.5,"[2H]C([2H])([2H])N(c1ccccc1Nc1cc(Nc2cc(C)nc(C)n2)nc2[nH]c(C(F)F)nc12)S(C)(=O)=O [I-200, N-(2-((2-(difluoromethyl)-5-((2,6-dimethylpyrimidin-4-yl)amino)-3H-imidazo[4,5-b]pyridin-7-yl)amino)phenyl)-N-(methyl-d3)methanesulfonamide]"
4,1 to 10,"Cc1cc(-c2ccc(Nc3cc(NC(=O)C4CC4)nc4[nH]c(C(F)F)nc34)c(S(C)(=O)=O)c2)oc1C [I-420, N-(2-(difluoromethyl)-7-((4-(4,5-dimethylfuran-2-yl)-2-(methylsulfonyl)phenyl)amino)-3H-imidazo[4,5-b]pyridin-5-yl)cyclopropanecarboxamide]"
5,1 to 10,"Cc1nc2c(Nc3ccc(-c4cn(C)cn4)cc3S(C)(=O)=O)cc(NC(=O)[C@@H]3CC3(F)F)nc2[nH]1 [I-228, (S)-2,2-difluoro-N-(2-methyl-7-((4-(1-methyl-1H-imidazol-4-yl)-2-(methylsulfonyl)phenyl)amino)-3H-imidazo[4,5-b]pyridin-5-yl)cyclopropane-1-carboxamide]"
6,0.1 to 0.5,"[2H]C([2H])([2H])S(=O)(=O)N(C)c1ccccc1Nc1cc(Nc2cc(C)nc(C)n2)nc2[nH]c(C(F)F)nc12 [I-448, N-(2-((2-(difluoromethyl)-5-((2,6-dimethylpyrimidin-4-yl)amino)-3H-imidazo[4,5-b]pyridin-7-yl)amino)phenyl)-N-methylmethanesulfonamide-d3]"
7,0.5 to 1,"Cc1nc2c(Nc3ccc(C4CCC4)cc3S(C)(=O)=O)cc(NC(=O)C3CC3)nc2[nH]1 [I-221, N-(7-((4-cyclobutyl-2-(methylsulfonyl)phenyl)amino)-2-methyl-3H-imidazo[4,5-b]pyridin-5-yl)cyclopropanecarboxamide]"
8,1 to 10,"Cc1nc2c(Nc3ccc(-c4ccn(C)n4)cc3S(C)(=O)=O)cc(NC(=O)[C@H]3CC3(F)F)nc2[nH]1 [I-240, (R)-2,2-difluoro-N-(2-methyl-7-((4-(1-methyl-1H-pyrazol-3-yl)-2-(methylsulfonyl)phenyl)amino)-3H-imidazo[4,5-b]pyridin-5-yl)cyclopropane-1-carboxamide]"
9,0.1 to 0.5,"Cc1nn(C)c(C)c1-c1ccc(Nc2cc(NC(=O)C3CC3)nc3[nH]c(C(F)F)nc23)c(S(C)(=O)=O)c1 [I-446, N-(2-(difluoromethyl)-7-((2-(methylsulfonyl)-4-(1,3,5-trimethyl-1H-pyrazol-4-yl)phenyl)amino)-3H-imidazo[4,5-b]pyridin-5-yl)cyclopropanecarboxamide]"
10,> 10,"Cc1nc2c(Nc3ccccc3P(C)(C)=O)cc(NC(=O)C3CC3)nc2[nH]1 [I-243, N-(7-((2-(dimethylphosphoryl)phenyl)amino)-2-methyl-3H-imidazo[4,5-b]pyridin-5-yl)cyclopropanecarboxamide]"
11,0.1 to 0.5,"Cc1cc(Nc2cc(Nc3ccc([C@@H]4CCCCO4)cc3S(C)(=O)=O)c3nc(C(F)F)[nH]c3n2)nc(C)n1 [I-505, (S)-2-(difluoromethyl)-N5-(2,6-dimethylpyrimidin-4-yl)-N7-(2-(methylsulfonyl)-4-(tetrahydro-2H-pyran-2-yl)phenyl)-3H-imidazo[4,5-b]pyridine-5,7-diamine]"
12,< 0.1,"Cc1cc(Nc2cc(Nc3ccc(C4CCCCO4)cc3S(C)(=O)=O)c3nc(C(F)F)[nH]c3n2)nc(C)n1 (centres unmarked) [I-366, 2-(difluoromethyl)-N5-(2,6-dimethylpyrimidin-4-yl)-N7-(2-(methylsulfonyl)-4-(tetrahydro-2H-pyran-2-yl)phenyl)-3H-imidazo[4,5-b]pyridine-5,7-diamine]"
13,0.1 to 0.5,Cc1cc(Nc2cc(Nc3ccc(-c4ccn(C5CC5)n4)cc3S(C)(=O)=O)c3nc(C)[nH]c3n2)nc(C)n1 [I-528]
14,< 0.1,"CS(=O)(=O)c1ccccc1Nc1cc(Nc2cccc(C#N)n2)nc2[nH]c(C(F)F)nc12 [I-602, 6-((2-(difluoromethyl)-7-((2-(methylsulfonyl)phenyl)amino)-3H-imidazo[4,5-b]pyridin-5-yl)amino)picolinonitrile]"

# Source: patent US10647713B2 (Nimbus Lakshmi, Inc., priority 2016, dated 2020)
